# From patent US20210290597A1, “METHOD OF TREATING A CONDITION ASSOCIATED WITH NEURODEGENERATION USING INHIBITORS OF OAT3” (Neuropore Therapies, Inc., priority 2018, published 2021)
# Test system: PK-resistant alpha-synuclein
# Assay: PK-resistant (insoluble) alpha-synuclein IHC, L61 ASYN transgenic mice, 1 month study
# Assay type: in vivo
# Settings: for reduction of PK-resistant alpha synuclein levels in cortex compared to vehicle-treated mice: L61 ASYN transgenic mice
# Method: Multiple in vivo administration studies of Compound 1 were carried out in the Line 61 (L61) mThy1-alpha-synuclein transgenic mouse model of Parkinson's disease (PD). The mThy1-alpha-synuclein transgenic mouse model overexpresses wild-type human ASYN under the Thy-1 promoter (commonly referred to as Line 61 transgenic mice; Rockenstein et al., 2002). This transgenic mouse develops extensive accumulation of alpha-synuclein (ASYN) in areas relevant to PD (Rockenstein et al., 2002; Chesselet et al., 2012; Games et al., 2013), neurodegeneration including dopaminergic neurodegeneration, reduced dopamine (DA) and TH loss in the striatum (Masliah et al., 2000; Lam et al., 2011), and motor deficits (Fleming et al., 2004). Male transgenic and non-transgenic littermates (3-3.5 mo) were used for all in vivo studies presented here.
# Alpha-synuclein (ASYN) is a neuronal protein whose dysregulation has been implicated in the pathogenesis of PD. The effects of Compound 1 on alpha-synuclein aggregation were assessed in both L61 ASYN transgenic and non-transgenic mice in a 1 month administration study. L61 ASYN transgenic mice (36 total mice, n=8-11 mice per treatment group) were injected (i.p.) daily with 1, 5, or 10 mg/kg of Compound 1 or a vehicle control (5% DMSO+20% Cremphor EL+0.9% normal saline) for 1 month. […] At the end of one month, the mice were sacrificed, and immunohistochemical (IHC) detection of total alpha-synuclein deposits, insoluble alpha-synuclein deposits (PK+resistant), microtubule-associated protein 1A/1B-light chain 3 (LC3), and monomeric alpha-synuclein levels were assessed in the harvested brain tissues.
# The quantification and IHC staining of PK-resistant alpha-synuclein were performed using known techniques (Rockenstein et al., J Neurosci Res. 2002, 68(5):568-78; Tanji et al., Acta Neuropathol. 2010, 120, 145-154; Nuber et al., Brain. 2013 February; 136(Pt 2):412-32).
smiles,measurement,setting,value
"O=S(=O)(c1ccc(-n2cn[nH]c2=S)cc1)c1ccc(Cl)c(C(F)(F)F)c1 [Compound 1, 4-(4-((4-chloro-3-(trifluoromethyl)phenyl)sulfonyl)phenyl)-2,4-dihydro-3H-1,2,4-triazole-3-thione]",reduction of PK-resistant alpha synuclein levels in cortex compared to vehicle-treated mice,5 mg/kg daily i.p.,37%
same,reduction of PK-resistant alpha synuclein levels in cortex compared to vehicle-treated mice,10 mg/kg daily i.p.,36%
same,"insoluble alpha-synuclein deposits (PK+resistant) in cortex, hippocampus and striatum","1, 5 or 10 mg/kg per day i.p., statistically significant",reduced the insoluble alpha-synuclein deposits
